Experimental data from US11725002B2, “Detection reagents and kit for identifying oxidized state and glycated state of low-density lipoproteins” (FUSO PHARMACEUTICAL INDUSTRIES, LTD., priority 2017, dated 2023).

Assays:
[1] = tested on: lipid radicals in LDL; assay: Fluorescence detection of lipid radicals in LDL with NBD-Pen
Protocol: To a solution of 20 μg protein/ml of LDL and 10 μM of NBD-Pen in phosphate buffered saline (PBS) containing 0.5% of MeCN were added 0-3 μM of CuSO4, FeSO4 or Hemin, to generate lipid radicals.
Specifically, to a solution of 20 μg protein/ml of LDL and 10 μM of NBD-Pen in phosphate buffered saline (PBS; pH 7.4) containing 0.5% of MeCN were added 0-3 μM of Hemin, to generate lipid radicals. After incubation for 60 minutes at 37° C., these reacted solutions were investigated by the respective methods.
For fluorescence detection using NBD-Pen according to the present invention, the fluorescence intensities obtained in Example 1 were expressed as ratios based on the results without addition of Hemin.

[2] = tested on: plaques of thoracic aorta; assay: Fluorescence mapping of lipid oxide in aorta of arteriosclerosis model mouse; assay type: in vivo, Apo-E knockout mouse; conditions: high fat diet 3 weeks, 500 μM/kg intraperitoneal, 15 minutes after administration, 470 nm/530 nm
Protocol: A 6-week-old male Apo-E knockout mouse (Apo−/−) was fed with a high fat diet, and 3 weeks later, NBD-Pen was administered at 500 μM/kg by intraperitoneal injection.
Fifteen minutes after NBD-Pen administration, the mouse was subjected to three types of mixed anesthesia and sacrificed, and the thoracic aorta was immediately removed. […] An oil red stained image of plaques of the same aortic sample was taken with a digital camera (FIG. 7b).

[3] = Lipid peroxide (LOOH) detection in LDL with fluorescent probe DPPP; conditions: concentration range used in Example 2
Protocol: The absorption band around 234 nm of conjugated dienes formed during lipid oxidation was tracked by absorbance spectrophotometry. In addition, a measurement was performed by use of diphenyl-1-pyrenylphosphate (DPPP), which is a lipid peroxide (LOOH) detection fluorescent probe.

Molecule | fluorescence intensities (λex: 470 nm, λem: 530 nm) ([1]; 20 μg protein/ml LDL, 10 μM NBD-Pen, 0-3 μM CuSO4, FeSO4 or Hemin, 60 minutes at 37° C.) | sensitivity of fluorescence detection ([1]; Hemin addition, compared with Cu2+ and Fe2+) | match of NBD-Pen fluorescence areas with oil-red stained plaques [2] | detection of lipid peroxides [3]
2,2,6-trimethyl-4-(4-nitrobenzo[1,2,5]oxadiazol-7-ylamino)-6-pentylpiperadine-1-oxyl [NBD-Pen] | increased in a concentration-dependent manner | high sensitivity of fluorescence detection | completely matched | 
O=P(Oc1ccccc1)(Oc1ccccc1)Oc1ccc2ccc3cccc4ccc1c2c34 [DPPP, diphenyl-1-pyrenylphosphate] |  |  |  | neither method could detect lipid peroxides
